Assay results from US8557767B2, “Synthetic apolipoprotein E mimicking polypeptides and methods of use” (UAB Research Foundation, priority 2007, dated 2013).

Assays:
[1] = test system: atherogenic apo B-containing lipoproteins in human plasma; details: cited from earlier work
human VLDL = details: cited from earlier work
apo E null mice [2] = assay: Oral feeding of peptides in chow to apo E null mice: plasma cholesterol and aortic sinus lesion
Description: The peptides were mixed in normal chow (1 mg/4 g chow) and fed ad libitum.
The study was continued for 6 weeks.

apo E null mice [3] = assay: Plasma cholesterol in apo E null mice after i.v. 18L-2Y or R18L-2Y; assay type: in vivo; details: 100 ug i.v.
From the text: Dual domain peptide that has LRKLRKRLLR (SEQ ID NO: 1), a sequence from apo E putative receptor binding domain, covalently linked to 18A (SEQ ID NO: 11) enhances uptake and degradation of apo B-containing lipoproteins. […] It has also been previously shown that that if the Lys residues are replaced by Arg, compared to the Lys-containing peptide, the resulting Arg-containing peptide has only 2% of lysis (Aikawa, M., et al. Circulation 106:1390-1396 2002). […] Rearrangement of the nonpolar face of 18L to incorporate aromatic residues at the center of the nonpolar face yields 18L-2. Addition of Tyr (for radiolabeling) yields 18L-2Y (FIG. 15). All of the Lys residues changed to Arg results in R18L2Y (FIG. 15).

apo E null mice [4] = assay: Plasma cholesterol in apo E null mice after i.v. dual-domain peptides; assay type: in vivo; details: iv, n=4
Description: The peptides represented are Ac-hE-18A-NH2, Ac-hE4F-NH2, and Ac-hE-Sc2F-NH2. Peptides Ac-hE-18A-NH2, Ac-hE-4F-NH2 and Ac-hE-Sc18A were administered (i.v.) to apo E null mice (n=4) and plasma cholesterol values were determined at before administration (0 min), 5 min and 2 h after administration.
As described above, peptides Ac-hE-18A-NH2, Ac-hE-4F-NH2 and Ac-hE-Sc18A were administered (iv) to apo E null mice (n=4) and plasma cholesterol values were determined at before administration (0 min), 5 min and 2 h after administration.

HepG2 cells = assay: Apo A-I / prebeta-HDL secretion by HepG2 cells; assay type: cell-based; details: for prebeta-HDL production: equal amount on weight basis (50 ug/ml), first overnight incubation; for prebeta-HDL amount after second and third overnight incubation: fresh cell medium without peptide

Substance | association with atherogenic apo B-containing lipoproteins [1] | prebeta-HDL production (HepG2 cells) | prebeta-HDL amount after second and third overnight incubation (HepG2 cells) | further results
Ac-18A-NH2: control peptide; end protected 18A (DWLKAFYDKVAEKLKEAF) (Ac-DWLKAFYDKVAEKLKEAF-NH2) [reference compound] | not |  |  | interaction with VLDL (human VLDL): displacement of apo E from VLDL
Ac-GFRRFLGSWARIYRAFVG-NH2 [R18L-2Y] |  |  |  | plasma cholesterol at end of 6 week feeding (apo E null mice [2]; 1 mg per 4 g chow): significantly reduced; atherosclerotic lesion formation, aortic sinus, Oil Red O (apo E null mice [2]; 1 mg per 4 g chow, 6 weeks, four week old female mice): significantly less lesion formation; plasma cholesterol levels at 15 days and 30 days (apo E null mice [2]; 1 mg/4 g of chow per animal per day, n=5): significant decrease; ability to clear plasma cholesterol (apo E null mice [3]): increased ability to clear plasma cholesterol compared to 18L-2Y
Ac-hE-4F-NH2: dual-domain cationic peptide, hE linked to 4F, end protected (Ac-LRKLRKRLLRDWFKAFYDKVAEKFKEAF-NH2) |  | produced preβ-HDL | produced significant amounts | reduction in plasma cholesterol levels at 2 h time point (apo E null mice [4]): large reduction
DWFKAFYDKVAEKFKEAF [4F, reference compound] |  | produced preβ-HDL | levels similar to that of control cell medium | 
LRKLRKRLLR | not |  |  | 
